{"source": "patent US20170348306A1", "about": "“METHODS OF TREATING CANCER” (GLAXOSMITHKLINE LLC, priority 2011, published 2017)", "experiment_in_all_cases": "Cell proliferation assay (6 days, CellTiter-Glo)", "type_in_all_cases": "cell-based", "key": {"HS-SULTAN": {"tested_on": "HS-SULTAN", "conditions": "Homo sapiens, 144 h, BURKITT, EZH2 WT, read-out: AVERAGE GROWTH IC50", "text": "(§1) Thus, Example 22 and Table 6 better reflect the inhibition of HZH2 inhibitors on cell lines, e.g. the lymphoma cell lines. DLBCL cell lines were the most sensitive to EZH2 inhibition (FIG. 11a). […] Evaluation of GSK126 in additional lymphoma cell lines and extensive genomic and epigenomic characterization will be required to fully elucidate the determinants of sensitivity among lymphoma subtypes.\n(§2) Biochemical assays utilized the 5-member PRC2 complex (human Flag-EZH2, EED, SUZ12, AEBP2, RbAp48) containing either WT or mutant EZH2, [^3H-]SAM and the indicated peptide substrate; reactions were incubated for 30 minutes. Global histone modification levels were determined by ELISA or western blot methods using antibodies specific for total histone H3, H3K27me1, H3K27me2, or H3K27me3. Cell proliferation and Caspase-3/7 activity were assessed using CellTiter-Glo and Caspase-Glo 3/7 (Promega), respectively. Gene expression profiling was conducted using Affymetrix Human Genome U133 Plus 2.0 microarrays. Differentially-expressed probe sets were determined by fitting the data to a linear model using the limma statistical package (http://www.bioconductor.org) and carrying out pair-wise contrasts of treated versus control. Significant probe sets were filtered for detection (log2 signal threshold of 8), an average fold-change >2 or <−2, or >1.5 or <−1.5, where indicated, with p-values adjusted for multiple testing correction by FDR (Benjamini Hochberg)<0.1. H3K27me3 ChIP reads were aligned using Bowtie (56). H3K27me3 enrichment peaks were identified using SICER (57) with optimized parameters. A custom PERL script was utilized to quantify the average basal H3K27me3 ChIP-seq tag density across gene sets. All in vivo studies were conducted after review by the Institutional Animal Care and Use Committee at GSK and in accordance with the GSK Policy on the Care, Welfare and Treatment of Laboratory Animals. GSK126 and vehicle were administered to mice intraperitoneally. Two-tailed t-tests were conducted assuming two samples of equal variance.\n(§3) The optimal cell seeding was determined empirically for all cell lines by examining the growth of a wide range of seeding densities in a 384-well format to identify conditions that permitted proliferation for 6 days. […] Plates were incubated for 6 days at 37° C. in 5% CO2. Cells were then lysed with CellTiter-Glo (Promega) and chemiluminescent signal was detected with a TECAN Safire2 microplate reader. In addition, an untreated plate of cells was harvested at the time of compound addition (T0) to quantify the starting number of cells. CTG values obtained after the 6 day treatment were expressed as a percent of the T0 value and plotted against compound concentration."}, "HT": {"tested_on": "HT", "conditions": "Homo sapiens, 144 h, DLBCL, EZH2 WT, read-out: AVERAGE GROWTH IC50", "text": "as §1, §2, §3"}, "P3HR-1": {"tested_on": "P3HR-1", "conditions": "Homo sapiens, 144 h, BURKITT, EZH2 WT, read-out: AVERAGE GROWTH IC50", "text": "as §1, §2, §3"}, "Toledo": {"tested_on": "Toledo", "conditions": "Homo sapiens, 144 h, DLBCL, EZH2 WT, read-out: AVERAGE GROWTH IC50", "text": "as §1, §2, §3"}, "U-2932": {"tested_on": "U-2932", "conditions": "Homo sapiens, U2932, 144 h, DLBCL, EZH2 WT, read-out: AVERAGE GROWTH IC50", "text": "as §1, §2, §3"}, "Jiyoye": {"tested_on": "Jiyoye", "conditions": "Homo sapiens, 144 h", "text": "as §1, §2, §3"}, "Hs 445": {"tested_on": "Hs 445", "conditions": "Homo sapiens, 144 h, HODGKIN'S, EZH2 WT, read-out: AVERAGE GROWTH IC50", "text": "as §1, §2, §3"}, "SU-DHL-6": {"tested_on": "SU-DHL-6", "conditions": "Homo sapiens, 144 h, DLBCL, EZH2 Y641N (HET), read-out: AVERAGE GROWTH IC50", "text": "as §1, §2, §3"}, "SU-DHL-10": {"tested_on": "SU-DHL-10", "conditions": "Homo sapiens, SU-DHL10, 144 h, DLBCL, EZH2 Y641F (HET), read-out: AVERAGE GROWTH IC50", "text": "as §1, §2, §3"}, "KARPAS-1106P": {"tested_on": "KARPAS-1106P", "conditions": "Homo sapiens, 144 h, MLBCL, EZH2 E744A (HET), read-out: AVERAGE GROWTH IC50", "text": "as §1, §2, §3"}, "SC-1": {"tested_on": "SC-1", "conditions": "Homo sapiens, 144 h, FL, EZH2 D185H (HET), read-out: AVERAGE GROWTH IC50", "text": "as §1, §2, §3"}, "SU-DHL-5": {"tested_on": "SU-DHL-5", "conditions": "Homo sapiens, 144 h, DLBCL, EZH2 WT, read-out: AVERAGE GROWTH IC50", "text": "as §1, §2, §3"}, "RC-K8": {"tested_on": "RC-K8", "conditions": "Homo sapiens, RCK8, 144 h, B-NHL, EZH2 D185H (HET), read-out: AVERAGE GROWTH IC50", "text": "as §1, §2, §3"}, "MHH-PREB-1": {"tested_on": "MHH-PREB-1", "conditions": "Homo sapiens, 144 h, B-NHL, EZH2 WT, read-out: AVERAGE GROWTH IC50", "text": "as §1, §2, §3"}, "CRO-AP2": {"tested_on": "CRO-AP2", "conditions": "Homo sapiens, 144 h, PEL, AIDS-BCBL, EZH2 WT, read-out: AVERAGE GROWTH IC50", "text": "as §1, §2, §3"}, "SU-DHL-4": {"tested_on": "SU-DHL-4", "conditions": "Homo sapiens, 144 h, DLBCL, EZH2 Y641S (HET), Y661N (HET), read-out: AVERAGE GROWTH IC50", "text": "as §1, §2, §3"}, "WILL-1": {"tested_on": "WILL-1", "conditions": "Homo sapiens, 144 h, DLBCL, EZH2 D185H (HET), read-out: AVERAGE GROWTH IC50", "text": "as §1, §2, §3"}, "BC-2": {"tested_on": "BC-2", "conditions": "Homo sapiens, 144 h, AIDS-BCBL, EZH2 WT, read-out: AVERAGE GROWTH IC50", "text": "as §1, §2, §3"}, "U-2940": {"tested_on": "U-2940", "conditions": "Homo sapiens, 144 h, DLBCL, EZH2 WT, read-out: AVERAGE GROWTH IC50", "text": "as §1, §2, §3"}, "WSU-NHL": {"tested_on": "WSU-NHL", "conditions": "Homo sapiens, 144 h, FL, EZH2 D185H (HET), read-out: AVERAGE GROWTH IC50", "text": "as §1, §2, §3"}, "Raji": {"tested_on": "Raji", "conditions": "Homo sapiens, 144 h, BURKITT, EZH2 WT, read-out: AVERAGE GROWTH IC50", "text": "as §1, §2, §3"}}, "note": "Like-named read-outs stand apart in the source and are kept apart here.", "data": [{"smiles": "CC[C@H](C)n1cc(C)c2c(C(=O)NCc3c(C)cc(C)[nH]c3=O)cc(-c3ccc(N4CCNCC4)nc3)cc21", "note": "[GSK126]", "values": [{"measurement": "IC50", "setting": "HS-SULTAN", "value": 2.27, "unit": "µM"}, {"measurement": "IC50", "setting": "HT", "value": 0.516, "unit": "µM"}, {"measurement": "IC50", "setting": "P3HR-1", "value": 3.21, "unit": "µM"}, {"measurement": "IC50", "setting": "Toledo", "value": 13.8, "unit": "µM"}, {"measurement": "IC50", "setting": "U-2932", "value": 2.94, "unit": "µM"}, {"measurement": "IC50", "setting": "Jiyoye; JIYOYE, BURKITT, EZH2 WT, read-out: AVERAGE GROWTH IC50", "value": 0.232, "unit": "µM"}, {"measurement": "IC50", "setting": "Jiyoye; Jiyoye, BL cell line with WT EZH2, read-out: growth IC50", "value": 0.23, "unit": "µM"}, {"measurement": "IC50", "setting": "Hs 445", "value": 3.53, "unit": "µM"}, {"measurement": "IC50", "setting": "SU-DHL-6", "value": 0.582, "unit": "µM"}, {"measurement": "IC50", "setting": "SU-DHL-10", "value": 0.448, "unit": "µM"}, {"measurement": "IC50", "setting": "KARPAS-1106P", "value": 4.54, "unit": "µM"}, {"measurement": "IC50", "setting": "SC-1", "value": 3.73, "unit": "µM"}, {"measurement": "IC50", "setting": "SU-DHL-5", "value": 2.3, "unit": "µM"}, {"measurement": "IC50", "setting": "RC-K8", "value": 4.53, "unit": "µM"}, {"measurement": "IC50", "setting": "MHH-PREB-1", "value": 5.3, "unit": "µM"}, {"measurement": "IC50", "setting": "CRO-AP2", "value": 1.64, "unit": "µM"}, {"measurement": "IC50", "setting": "SU-DHL-4", "value": 4.83, "unit": "µM"}, {"measurement": "IC50", "setting": "WILL-1", "value": 5.53, "unit": "µM"}, {"measurement": "IC50", "setting": "BC-2", "value": 4.76, "unit": "µM"}, {"measurement": "IC50", "setting": "U-2940", "value": 4.56, "unit": "µM"}, {"measurement": "IC50", "setting": "WSU-NHL", "value": 3.54, "unit": "µM"}, {"measurement": "IC50", "setting": "Raji", "value": 7.87, "unit": "µM"}]}]}
